Structures are written as SMILES. “And” between values parts separate entries of the source, which are not always exact repeats. Equal values may be shown once. Numbers after ± are expanded uncertainties.

The values below come from the NIST ThermoML archive (doi:10.1016/j.fluid.2007.07.020).

The conditions of data set [1]: Crystal; DTA.
Data set [2] is described as follows: Molar enthalpy of transition or fusion. As to conditions: Crystal; DSC.

With `O=C([O-])Cc1ccccc1Nc1c(Cl)cccc1Cl.[Na+]` [sodium diclofenac], the Normal melting temperature in data set [1] was 287 ± 3 °C. Besides, in data set [2], the “Molar enthalpy of transition or fusion” value was 7.6 kcal/mol and 9.5 kcal/mol.
